As a reminder, the LC50 is the concentration that kills 50% of the test population. A higher LC50 goes with a less lethal substance. As usually defined, the IC50 is the midpoint of a concentration-inhibition curve.

In brackets after ≈: the same amount, converted by molar mass. Bounds are passed on as bounds.

Assay [1] in a line: Cytotoxicity against human Hep2.2.15 cells. In kind it is functional. The following applies: HepG2 2.2.15, read-out: ED50 (the source's name).
A short description of assay [2]: Cytotoxicity against human Hep G2 cells. In kind it is functional. The following applies: HepG2, read-out: ED50 (the source's name).
A short description of assay [3]: Cytotoxicity against human CCM2 cells. In kind it is functional. Conditions: read-out: ED50 (the source's name).
A further assay has as its system PC-3. The assay can be described thus: Cytotoxicity against human PC-3 cells. The format is functional. Conditions: Homo sapiens, PC-3; read-out: ED50 (the source's name).
A further assay has as its system MIA PaCa-2. The assay can be described thus: Cytotoxicity against human MIA PaCa2 cells. The format is functional. The following applies: Homo sapiens, MIA PaCa-2; read-out: ED50 (the source's name).
The subject of another assay is A549. The experiment in a line: Cytotoxicity against human A549 cells. In kind it is functional. Conditions: Homo sapiens, A549; read-out: ED50 (the source's name).
In assay [4] the test system is MCF7. The assay can be described thus: Cytotoxicity against human MCF7 cells. The format is functional. The following applies: Homo sapiens, MCF7; read-out: ED50 (the source's name).
For another assay, the system named is HT-29. The assay can be described thus: Cytotoxicity against human HT-29 cells. In kind it is functional. The following applies: Homo sapiens, HT-29; read-out: ED50 (the source's name).
The subject of a further assay is RPMI-7951. The experiment in a line: Cytotoxicity against human RPMI-7951 cells. Conditions: read-out: ED50 (the source's name). In kind it is functional.
The subject of a further assay is U-251. The assay can be described thus: Cytotoxicity against human U251 cells. In kind it is functional, cell-based.
The subject of another assay is X5563. The assay can be described thus: Cytotoxicity against human X5563 cells. In kind it is functional.
Assay [5] concerns Blattella germanica. The experiment in a line: Ratio of LT50 for Blattella germanica Muncie second instars to LT50 for Blattella germanica Jwax second instars. In kind it is functional.
In assay [6] the test system is Blattella germanica. The experiment in a line: Ratio of LT50 for Blattella germanica Muncie fifth instars to LT50 for Blattella germanica Jwax fifth instars. In kind it is functional.
The test system of a further assay is Aedes aegypti. The experiment in a line: Insecticidal activity against yellow fever mosquito. In kind it is functional.
Assay [7] relates to MCF7. The experiment in a line: Cytotoxicity against human wild type MCF7 cells at 1 ug/ml. In kind it is functional.
The subject of a further assay is KB. The assay can be described thus: Cytotoxicity against human KB cells. The format is functional, cell-based. The following applies: for IC50: Homo sapiens, KB.
The next assay concerns HCT-8. The assay can be described thus: Cytotoxicity against human HCT8 cells. The format is functional, cell-based.
Another assay relates to Bel-7402. The assay can be described thus: Cytotoxicity against human Bel-7402 cells. In kind it is functional, cell-based.
Assay [8] can be described thus: Inhibition of NADH oxidase.
The next assay concerns HL-60. The assay can be described thus: Cytotoxicity against human HL-60 cells. In kind it is functional, cell-based.
Another assay concerns A2780. The experiment in a line: Cytotoxicity against human A2780 cells. In kind it is functional, cell-based.

On to `CCCCCCCCCCCC[C@@H](O)[C@H]1CC[C@H]([C@H](O)CC/C=C\CCCCCC[C@@H]2CC(CC(C)=O)C(=O)O2)O1` (mixture of isomers), for which the EC50 was determined as 0.14 µg/mL in assay [1], 0.047 µg/mL in [2] and 0.085 µg/mL in assay [3].
`CCCCCCCCCC[C@H](O)[C@@H]1CC[C@@H]([C@@H]2CC[C@@H]([C@@H](O)CCC(O)CCCCCCCCC[C@@H](O)CC3=C[C@H](C)OC3=O)O2)O1` (some centres undefined) [ARTICULIN]: the EC50 in the assay on PC-3 came out at 1.9 µg/mL (≈ 2.85 µM); with MIA PaCa-2, 1 µg/mL (≈ 1.5 µM); with A549, 0.006 µg/mL (≈ 0.009 µM); with MCF7 [4], 0.004 µg/mL (≈ 0.006 µM); in the assay on HT-29, 0.6 µg/mL (≈ 0.9 µM); in the assay with RPMI-7951, 0.01 µg/mL (≈ 0.015 µM). Besides, the EC50 in the assay with U-251 (read-out: ED50 (the source's name)) came out at 0.01 µg/mL (≈ 0.015 µM).
In the assay on X5563, `CCCCCCCCCC[C@H](O)[C@H]1CC[C@H]([C@H](O)CC[C@H](O)[C@@H]2CC[C@@H](CCCCCCC[C@@H](O)CC3=C[C@H](C)OC3=O)O2)O1` [BULLATALICIN] had an Activity of 67%. For the same molecule, the Ratio in the assay on Blattella germanica [5] came out at 0.9; in the assay with Blattella germanica [6] it was 1.8. In the assay with Aedes aegypti, this molecule came in with an LC50 of 0.1 µg/mL (≈ 0.157 µM).
`CCCCCCC(O)CCC[C@H](O)[C@@H]1CC[C@@H]([C@@H]2CC[C@H]([C@H](O)CCCCCCCCCCC3=C[C@H](C)OC3=O)O2)O1` (some centres undefined) [CAROLIN C] yielded an Activity with MCF7 [7] of 50%. The molecule further gave an ED50 with KB of 2 ×10⁻⁴ ug/ml.
As for `CCCCCCCCCCCC[C@H](O)[C@H](O)CC[C@H](O)[C@@H]1CC[C@@H](C[C@H](O)CCCCC[C@@H](O)CC2=C[C@@](C)(O)OC2=O)O1` [GARDNERININ], the IC50 in the assay with KB is above 10 µg/mL; with HCT-8, 6.6 µg/mL (≈ 10.5 µM); with Bel-7402 it was above 10 µg/mL.
The molecule `CCCCCCCCCC[C@@H](O)[C@@H]1CC[C@@H]([C@@H]2CC[C@@H]([C@@H](O)CCCCC(=O)CCCCCCCC3=C[C@H](C)OC3=O)O2)O1` [GUANACONNE] showed an IC50 in the assay with U-251 of 1.5 nM.
In assay [8], `CCCCCCCCCC[C@@H](O)[C@@H]1CC[C@H]([C@H]2CC[C@@H]([C@@H](O)CCCCCCCCCCC3=C[C@H](C)OC3=O)O2)O1` [MEMBRAROLLIN] showed an IC50 of 0.3 nM.
The molecule `CCCCCCCCCC[C@H](O)[C@@H]1CC[C@H]([C@H]2CC[C@@H]([C@H](O)CCCCCCCC[C@@H](O)CC3=C[C@H](C)OC3=O)O2)O1` [ROLLIMEMBRIN] had an IC50 in assay [8] of 0.33 nM.
Take `CCCCCCCCCCCCCCCC[C@@H](O)[C@H](O)CCCCCCCCCCCCCCC1=C[C@H](C)OC1=O` [TONKINELIN]: the IC50 in the assay with KB is above 10 µg/mL; with HCT-8, 6.7 µg/mL (≈ 11.6 µM); in the assay on HL-60 it was 1 µg/mL (≈ 1.73 µM); in the assay with A2780, above 10 µg/mL.
Regarding `CCCCCCCCCCCC[C@H](O)[C@H]1CC[C@H]([C@H](O)CC(O)CCCCCCCCCC(=O)CCC2=C[C@H](C)OC2=O)O1` (some centres undefined) [TONKININ A], the IC50 is above 10 µg/mL in the assay on KB, 0.59 µg/mL (≈ 0.947 µM) in the assay with HCT-8, 0.016 µg/mL (≈ 0.0257 µM) in the assay on HL-60 and above 10 µg/mL in the assay on A2780.
Take `CCCCCCCCCCCC[C@@H](O)[C@H]1CC[C@H]([C@H](O)CC(O)CCCCCCCCCC(=O)CCC2=C[C@H](C)OC2=O)O1` (some centres undefined) [TONKININ B]: the IC50 in the assay on KB is above 10 µg/mL; in the assay on HCT-8, 2.4 µg/mL (≈ 3.85 µM); in the assay with HL-60, 0.06 µg/mL (≈ 0.0963 µM); with A2780, above 10 µg/mL.
Turning to `CCCCCCCCCCCCCC[C@H](O)[C@H]1CC[C@H]([C@@H](CC(O)CCCCCCCCCCC2=C[C@H](C)OC2=O)OC(C)=O)O1` (some centres undefined) [TONKININ C], the IC50 in the assay with KB was above 10 µg/mL; in the assay with HCT-8, 0.86 µg/mL (≈ 1.32 µM); in the assay on HL-60, 0.00042 µg/mL (≈ 0.000645 µM); in the assay with A2780 it was above 10 µg/mL.
Take `CCCCCCCCCC[C@@H](O)[C@H]1CC[C@@H]([C@H]2CC[C@H]([C@H](O)CCC[C@H](O)CCCCCCCC3=C[C@H](C)OC3=O)O2)O1` [TRILOBIN]: in the assay on Aedes aegypti, the LC50 was 0.67 µg/mL (≈ 1.1 µM).
